# What was measured:
# [1] = test system: P. aeruginosa PAO1 biofilm; experiment: Effect of GM-CSF on 24-h PAO1 biofilm, alone and with antibiotic; assay type: cell-based, Pseudomonas aeruginosa
# Method: This Example describes the treatment of biofilms made from P. aeruginosa PAO1, PDO300 and Escherichia coli K12, with GM-CSF introduced directly or together with an antibiotic to test the synergy.
# In brief, after preparing an overnight culture, it was subcultured to an initial OD600 of 0.01 to a total volume of 20 mL M63 medium (for PAO1 and PDO300) or 20 ml LB medium (for E. coli K12) in a petri dish with 316L stainless steel coupons (1.75 cm×1 cm). The biofilm was grown for 24 h at 37° C. without shaking. After incubation, the coupons were washed by gently dipping in 0.85% NaCl twice using tweezers and were placed in new empty petri dishes.
# To test the synergistic effects between GM-CSF (2.43 pg/mL or 0.17 pM) and antibiotics, a total of 8 coupons were analyzed. These 8 coupons were placed in 4 petri dishes (2 coupons in each dish). The two dishes were labeled as control and the other two as treatment samples. In the treatment samples, GM-CSF was added to 20 mL of 0.85% NaCl to a concentration of 2.43 pg/mL (or 0.17 pM). The control samples were supplemented with the same amount of PBS and BSA as present in the samples with 2.43 pg/ml (or 0.17 pM) GM-CSF. The coupons were incubated at 37° C. for 2 h.
# After incubation, a control dish and a treatment dish was selected for studying the killing effect of 2.43 pg/ml GM-CSF on biofilm cells. Each coupon after gentle washing with 0.85% NaCl buffer, was placed in a test tube with 3 mL 0.85% NaCl buffer in each. They were sonicated (B200, Sinosonic Industrial Co., Ltd., Taiwan) for 4 mins to release the biofilm cells in the buffer. After vortexing for 1 min, they were plated on LB agar plates using drop plate method. The CFU was counted after incubation at 37° C. for 24 h to count the total number of viable cells. Furthermore, the synergistic effect of antibiotics with GM-CSF was evaluated with additional 3.5 h treatment with antibiotic at 37° C. After incubation, drop plate method was performed and the CFU was counted to understand if there is a synergistic effect.
# [2] = test system: whole cells of P. aeruginosa; experiment: GM-CSF binding assay to bacterial whole cells (slot blot immunoblotting); design: species or system Pseudomonas aeruginosa; conditions: PBS, room temperature, 2 h, anti-rhGM-CSF immunoblot (FIG. 21)
# Method: This Example describes experiments conducted to determine the capability of GM-CSF to bind to whole cells of P. aeruginosa and E. coli. In brief, bacteria harvested at stationary phases of growth were washed with PBS and adjusted to OD600 of 0.4 with PBS to ensure that an equal amount of cells was used for all GF-CSF binding tests. Suspensions of bacteria (10^6 CFU) were then incubated with and without different amount of recombinant human GM-CSF (rhGM-CSF, R&D systems) in a 40 μL volume at room temperature for 2 hours. After incubation, the cell suspension was centrifuged to separate supernatant (comprising buffer and unbound GM-CSF) and pellet (comprising cell and bound GM-CSF, if any), followed by the addition of 10 mM EDTA and boiling for 30 minutes to inactivate bacterial alkaline phosphatase activity. As control, PBS buffer with GM-CSF were processed in the similar manner. All the samples were then applied to Slot Blot (BioRad) for immunoblotting experiments. Anti-rhGMCSF developed in mice (Human GM-CSF MAb, Mouse IgG1, R&D system) was used as first antibody; Alkaline Phosphatase conjugated with Anti-mouse IgG was used to detect the binding of GM-CSF with BCIP/NBT (Promega) as substrates.
# [3] = test system: planktonic cells of PDO300; experiment: Synergistic effect of GM-CSF, tobramycin and alginate lyase on planktonic cells of PDO300; assay type: cell-based, Pseudomonas aeruginosa
# Description: This Example describes the use of alginate lyase as an enzyme to break down the extra alginate in order to understand the effect of the presence of alginate in PDO300 on the GM-CSF and antibiotic treatment.
# To improve the effects of GM-CSF and antibiotics on the alginate overproducing PDO300, alginate lyase was used as an enzyme to break down the extra alginate. Alginate lyase is an enzyme which depolymerizes the alginate polymer by […] reaction. The alginate lyase used in the experiment was alginate lyase from Flavobacterium sp. (Sigma, catalog no. A1603-100MG). The experimental method was similar as mentioned above for the combined effect of GM-CSF and antibiotic. The alginate lyase was added as 0.05 mg/mL.
# In brief, the experiment was performed in exponential phase with an optical density at 600 nm (OD600) of 0.3 to 0.4. After preparing an overnight culture of the tested strain in 25 ml LB medium, a subculture was prepared with an OD600 of 0.01 in 50 mL LB medium. The subculture was incubated at 37° C. with shaking at 200 rpm for 3-4 h, till OD600 of 0.3 to 0.4 was reached. The exponential phase subculture was then divided equally into two centrifuge tubes. The subcultures were washed twice with 0.85% NaCl buffer by vortexing and then centrifuging at 4° C., 8000 rpm for 10 min each time. The washed subcultures were resuspended in 25 mL 0.85% NaCl buffer and vortexed gently for 1 min. One of the subculture was selected for isolation of persisters by adding 200 μg/mL ciprofloxacin. After adding the antibiotic, the subculture was incubated at 37° C. with shaking at 200 rpm for 3.5 h. The other subculture was used to quantify the total number of viable cells.
# For testing the direct impact of GM-CSF on the total viable cells, 1 mL of the subculture was added in 24 microcentrifuge tubes; 12 were control and the other 12 were GM-CSF treatment samples. In the treatment samples, GM-CSF was added to a concentration of 2.43 pg/mL. The control samples were supplemented with the same concentration of PBS and BSA as present in 2.43 pg/mL GM-CSF samples. […]
substance,measurement,setting,value
"GM-CSF: granulocyte macrophage-colony stimulating factor, a cytokine secreted by macrophages; recombinant human GM-CSF (R&D systems) in binding tests",% change in avg. CFU/ml after adding factor + CIP,"[1]; 24-h PAO1 biofilm, 2.43 pg/mL GM-CSF with 200 μg/mL ciprofloxacin",−23.8%
same,% change in avg. CFU/ml after adding factor + TET,"[1]; 24-h PAO1 biofilm, 2.43 pg/mL GM-CSF with 200 μg/mL tetracycline",−10.0%
same,% change in avg. CFU/ml after adding factor + TOB,"[1]; 24-h PAO1 biofilm, 2.43 pg/mL GM-CSF with 200 μg/mL tobramycin",−34.1%
same,% change in avg. CFU/ml after adding factor + GEN,"[1]; 24-h PAO1 biofilm, 2.43 pg/mL GM-CSF with 250 μg/mL gentamycin",−12.9%
same,average CFU/ml of biofilm cells reduced by,"[1]; reduction, PAO1 biofilm, 2.43 pg/mL GM-CSF alone, average of 2 experiments",1.3%
same,average CFU/mL of biofilm cells reduced by,"[1]; reduction, PAO1 biofilm, 2.43 pg/mL GM-CSF in the presence of 200 μg/mL ciprofloxacin",22.8%
same,average CFU/mL of biofilm cells reduced by,"[1]; reduction, PAO1 biofilm, 2.43 pg/mL GM-CSF in the presence of 200 μg/mL tetracycline",7.5%
same,average CFU/mL of biofilm cells reduced by,"[1]; reduction, PAO1 biofilm, 2.43 pg/mL GM-CSF in the presence of 200 μg/mL tobramycin",33.3%
same,average CFU/mL of biofilm cells reduced by,"[1]; reduction, PAO1 biofilm, 2.43 pg/mL GM-CSF in the presence of 250 μg/mL gentamicin",10.5%
same,binding to whole cells,[2],does bind
same,persisters changed by,"[3]; planktonic PDO300, 2.43 pg/mL GM-CSF and 50 μg/mL tobramycin",−63.6±5.4%
same,persisters changed by,"[3]; planktonic PDO300, 2.43 pg/mL GM-CSF, 50 μg/mL tobramycin and 0.05 mg/mL Alginate lyase",−74.1±3.3%
same,persisters changed by,"[3]; planktonic cells (Example on PDO300; sentence prints PAO1), 2.43 pg/mL GM-CSF alone",−15.0±4.2%
